Results from article PMC10573254, “Development of Novel Class of Phenylpyrazolo[3,4-d]pyrimidine-Based Analogs with Potent Anticancer Activity and Multitarget Enzyme Inhibition Supported by Docking Studies” (International Journal of Molecular Sciences, 2023).
Like-named read-outs stand apart in the source and are kept apart here.

Legend:
HePG-2 = test: MTT cytotoxicity assay, HePG-2; type: cell-based; conditions: Homo sapiens, HepG2
Description: (§1) The cytotoxic activity was assessed using the 3-(4,5-dimethylthiazol-2-yl)-2,5-diphenyl tetrazolium bromide (MTT) colorimetric assay, as reported previously. Doxorubicin was used as a reference standard, and DMSO was used as a negative control. Briefly, the designated cell lines were cultured at a concentration of 5 × 10^4 cell/well in 96-well plates. The cells were incubated for 24 h under optimum conditions. Following this, the designated molecules were introduced (in serial dilutions from 0 to 50 μg/mL), and the cells were incubated for an additional 24 h. Following this, the media were withdrawn, and 100 μL of fresh medium was added. Then, 10 µL of the 12 mM MTT stock solution was administered to each well. The plates were then incubated for 4 h. […] An 85-μL aliquot of the media was removed from the wells, and 50 µL of DMSO was added to each well and mixed thoroughly with the pipette and incubated at 37 °C for 10 min. Then, the optical density was measured at 590 nm with the microplate reader (Sunrise, TECAN, Inc., Morrisville, NC, USA).

MCF-7 = test: MTT cytotoxicity assay, MCF-7; type: cell-based; conditions: Homo sapiens, MCF7
Description: The cytotoxic activity was assessed using the 3-(4,5-dimethylthiazol-2-yl)-2,5-diphenyl tetrazolium bromide (MTT) colorimetric assay, as reported previously [62, 63]. […] Briefly, the designated cell lines were cultured at a concentration of 5 × 10^4 cell/well in 96-well plates. The cells were incubated for 24 h under optimum conditions. Following this, the designated molecules were introduced (in serial dilutions from 0 to 50 μg/mL), and the cells were incubated for an additional 24 h. Following this, the media were withdrawn, and 100 μL of fresh medium was added. Then, 10 µL of the 12 mM MTT stock solution was administered to each well. The plates were then incubated for 4 h. Then, the cells were exposed to different compounds at the desired concentrations (0.01, 0.1, 1, 10, and 100 µM) or to 1% dimethyl sulfoxide (DMSO) for 48 and 72 h. […] Then, the optical density was measured at 590 nm with the microplate reader (Sunrise, TECAN, Inc., Morrisville, NC, USA).

HCT-116 = test: MTT cytotoxicity assay, HCT-116; type: cell-based; conditions: Homo sapiens
WI-38 = test: MTT assay on normal cell line WI-38; type: cell-based; conditions: normal human diploid fibroblasts
Description: (§2) According to our design, the tested compounds are classified into four categories based on the length and the chemotype of the spacer (Figure 3). In the first category, we used monosubstituted hydrazone linker. […] The second category is represented by […] hydrazone linker.
as §1

EGFR^WT = EGFR^WT (Homo sapiens, UniProt P00533); test: In vitro EGFR enzyme inhibitory assay; type: biochemical; conditions: for EGFR %inh at conc 0.01: conc 0.01, unit not given; for EGFR %inh at conc 0.1: conc 0.1, unit not given; for EGFR %inh at conc 1: conc 1, unit not given; for EGFR %inh at conc 10: conc 10, unit not given
Chain of EGFR^WT (P00533 25-1210): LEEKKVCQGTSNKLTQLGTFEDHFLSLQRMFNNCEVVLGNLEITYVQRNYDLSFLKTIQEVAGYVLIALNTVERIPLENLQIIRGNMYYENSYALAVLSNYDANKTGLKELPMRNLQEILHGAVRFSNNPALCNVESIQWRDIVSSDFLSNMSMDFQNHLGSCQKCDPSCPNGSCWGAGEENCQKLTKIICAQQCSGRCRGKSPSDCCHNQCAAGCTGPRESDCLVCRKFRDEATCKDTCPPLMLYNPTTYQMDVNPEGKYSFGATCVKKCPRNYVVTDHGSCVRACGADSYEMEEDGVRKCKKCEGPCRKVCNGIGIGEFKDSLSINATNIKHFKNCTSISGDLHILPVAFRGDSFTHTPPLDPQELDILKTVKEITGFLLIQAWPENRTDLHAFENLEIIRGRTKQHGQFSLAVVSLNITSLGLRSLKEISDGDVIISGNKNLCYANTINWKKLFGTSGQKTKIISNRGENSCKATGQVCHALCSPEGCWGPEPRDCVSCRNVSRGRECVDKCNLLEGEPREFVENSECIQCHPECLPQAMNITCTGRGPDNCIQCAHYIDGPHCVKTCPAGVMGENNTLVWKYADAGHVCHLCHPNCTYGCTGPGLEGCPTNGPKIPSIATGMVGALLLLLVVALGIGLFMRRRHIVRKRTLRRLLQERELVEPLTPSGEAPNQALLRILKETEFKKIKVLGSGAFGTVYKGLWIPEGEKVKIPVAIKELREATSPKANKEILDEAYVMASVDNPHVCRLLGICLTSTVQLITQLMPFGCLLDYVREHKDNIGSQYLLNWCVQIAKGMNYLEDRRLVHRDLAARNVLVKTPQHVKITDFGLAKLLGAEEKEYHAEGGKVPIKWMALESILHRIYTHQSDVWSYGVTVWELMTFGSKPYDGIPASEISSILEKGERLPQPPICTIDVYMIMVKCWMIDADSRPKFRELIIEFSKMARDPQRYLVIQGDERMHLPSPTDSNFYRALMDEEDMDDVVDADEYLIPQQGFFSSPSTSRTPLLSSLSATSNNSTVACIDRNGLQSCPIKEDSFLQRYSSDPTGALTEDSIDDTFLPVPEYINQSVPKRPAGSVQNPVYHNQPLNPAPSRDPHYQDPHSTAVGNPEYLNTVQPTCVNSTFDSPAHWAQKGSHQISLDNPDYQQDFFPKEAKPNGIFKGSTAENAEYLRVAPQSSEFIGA

VEGFR-2 = VEGFR-2 (Homo sapiens, UniProt P35968); test: In vitro VEGFR2 enzyme inhibitory assay; type: biochemical; conditions: for VEGFR2 %inh at conc 0.01: conc 0.01, unit not given; for VEGFR2 %inh at conc 0.1: conc 0.1, unit not given; for VEGFR2 %inh at conc 1: conc 1, unit not given; for VEGFR2 %inh at conc 10: conc 10, unit not given; for target selectivity index EGFR over VGFR-2: fold, EGFR^WT versus VGFR-2
Chain of VEGFR-2 (P35968 20-1356): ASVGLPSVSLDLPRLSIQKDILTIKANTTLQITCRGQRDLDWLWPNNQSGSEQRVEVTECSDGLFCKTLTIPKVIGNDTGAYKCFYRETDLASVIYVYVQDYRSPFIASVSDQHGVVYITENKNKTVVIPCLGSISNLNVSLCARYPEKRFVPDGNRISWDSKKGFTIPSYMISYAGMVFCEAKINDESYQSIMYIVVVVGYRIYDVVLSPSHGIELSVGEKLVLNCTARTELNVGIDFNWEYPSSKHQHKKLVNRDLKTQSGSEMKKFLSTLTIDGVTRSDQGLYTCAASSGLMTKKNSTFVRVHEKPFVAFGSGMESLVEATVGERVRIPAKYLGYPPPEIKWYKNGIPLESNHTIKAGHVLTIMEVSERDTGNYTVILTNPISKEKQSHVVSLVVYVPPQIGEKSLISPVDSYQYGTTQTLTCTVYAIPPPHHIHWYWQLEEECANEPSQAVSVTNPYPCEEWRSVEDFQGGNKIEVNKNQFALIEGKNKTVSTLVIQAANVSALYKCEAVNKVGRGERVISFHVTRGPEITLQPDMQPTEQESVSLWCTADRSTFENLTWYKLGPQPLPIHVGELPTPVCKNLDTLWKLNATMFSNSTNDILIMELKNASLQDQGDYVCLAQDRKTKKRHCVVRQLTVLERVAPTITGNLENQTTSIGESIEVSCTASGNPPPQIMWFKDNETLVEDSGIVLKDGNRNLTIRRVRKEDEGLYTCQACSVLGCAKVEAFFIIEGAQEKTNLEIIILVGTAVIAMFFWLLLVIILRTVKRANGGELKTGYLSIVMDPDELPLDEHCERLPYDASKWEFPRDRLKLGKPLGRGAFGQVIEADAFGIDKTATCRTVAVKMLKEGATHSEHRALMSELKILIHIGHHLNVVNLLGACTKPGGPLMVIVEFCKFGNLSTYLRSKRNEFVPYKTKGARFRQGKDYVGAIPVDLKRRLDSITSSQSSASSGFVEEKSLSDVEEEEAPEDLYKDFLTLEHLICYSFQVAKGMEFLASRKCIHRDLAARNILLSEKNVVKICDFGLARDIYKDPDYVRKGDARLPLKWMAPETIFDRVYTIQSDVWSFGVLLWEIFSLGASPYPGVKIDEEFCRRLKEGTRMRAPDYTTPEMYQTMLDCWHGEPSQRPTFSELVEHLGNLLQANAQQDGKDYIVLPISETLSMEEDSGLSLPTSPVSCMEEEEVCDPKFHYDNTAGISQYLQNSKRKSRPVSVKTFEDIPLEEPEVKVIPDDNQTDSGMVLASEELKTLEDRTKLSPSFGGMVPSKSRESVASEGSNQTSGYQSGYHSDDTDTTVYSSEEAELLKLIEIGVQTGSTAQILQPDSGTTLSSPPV
Description: (§3) Curve fitting was performed using GraphPad Prism.
(§4) (1 picture or pasted object on this page, not shown here)

Topo-II [1] = target: T1, Topo-II (Homo sapiens, UniProt Q02880); test: In vitro Topo II inhibitory assay; type: biochemical; conditions: for TOPO IiB %inh at conc 0.1: conc 0.1, unit not given; for TOPO IiB %inh at conc 1: conc 1, unit not given; for TOPO IiB %inh at conc 10: conc 10, unit not given; for TOPO IiB %inh at conc 100: conc 100, unit not given
T1 construct: purchased
T1 sequence (Q02880 2-1626): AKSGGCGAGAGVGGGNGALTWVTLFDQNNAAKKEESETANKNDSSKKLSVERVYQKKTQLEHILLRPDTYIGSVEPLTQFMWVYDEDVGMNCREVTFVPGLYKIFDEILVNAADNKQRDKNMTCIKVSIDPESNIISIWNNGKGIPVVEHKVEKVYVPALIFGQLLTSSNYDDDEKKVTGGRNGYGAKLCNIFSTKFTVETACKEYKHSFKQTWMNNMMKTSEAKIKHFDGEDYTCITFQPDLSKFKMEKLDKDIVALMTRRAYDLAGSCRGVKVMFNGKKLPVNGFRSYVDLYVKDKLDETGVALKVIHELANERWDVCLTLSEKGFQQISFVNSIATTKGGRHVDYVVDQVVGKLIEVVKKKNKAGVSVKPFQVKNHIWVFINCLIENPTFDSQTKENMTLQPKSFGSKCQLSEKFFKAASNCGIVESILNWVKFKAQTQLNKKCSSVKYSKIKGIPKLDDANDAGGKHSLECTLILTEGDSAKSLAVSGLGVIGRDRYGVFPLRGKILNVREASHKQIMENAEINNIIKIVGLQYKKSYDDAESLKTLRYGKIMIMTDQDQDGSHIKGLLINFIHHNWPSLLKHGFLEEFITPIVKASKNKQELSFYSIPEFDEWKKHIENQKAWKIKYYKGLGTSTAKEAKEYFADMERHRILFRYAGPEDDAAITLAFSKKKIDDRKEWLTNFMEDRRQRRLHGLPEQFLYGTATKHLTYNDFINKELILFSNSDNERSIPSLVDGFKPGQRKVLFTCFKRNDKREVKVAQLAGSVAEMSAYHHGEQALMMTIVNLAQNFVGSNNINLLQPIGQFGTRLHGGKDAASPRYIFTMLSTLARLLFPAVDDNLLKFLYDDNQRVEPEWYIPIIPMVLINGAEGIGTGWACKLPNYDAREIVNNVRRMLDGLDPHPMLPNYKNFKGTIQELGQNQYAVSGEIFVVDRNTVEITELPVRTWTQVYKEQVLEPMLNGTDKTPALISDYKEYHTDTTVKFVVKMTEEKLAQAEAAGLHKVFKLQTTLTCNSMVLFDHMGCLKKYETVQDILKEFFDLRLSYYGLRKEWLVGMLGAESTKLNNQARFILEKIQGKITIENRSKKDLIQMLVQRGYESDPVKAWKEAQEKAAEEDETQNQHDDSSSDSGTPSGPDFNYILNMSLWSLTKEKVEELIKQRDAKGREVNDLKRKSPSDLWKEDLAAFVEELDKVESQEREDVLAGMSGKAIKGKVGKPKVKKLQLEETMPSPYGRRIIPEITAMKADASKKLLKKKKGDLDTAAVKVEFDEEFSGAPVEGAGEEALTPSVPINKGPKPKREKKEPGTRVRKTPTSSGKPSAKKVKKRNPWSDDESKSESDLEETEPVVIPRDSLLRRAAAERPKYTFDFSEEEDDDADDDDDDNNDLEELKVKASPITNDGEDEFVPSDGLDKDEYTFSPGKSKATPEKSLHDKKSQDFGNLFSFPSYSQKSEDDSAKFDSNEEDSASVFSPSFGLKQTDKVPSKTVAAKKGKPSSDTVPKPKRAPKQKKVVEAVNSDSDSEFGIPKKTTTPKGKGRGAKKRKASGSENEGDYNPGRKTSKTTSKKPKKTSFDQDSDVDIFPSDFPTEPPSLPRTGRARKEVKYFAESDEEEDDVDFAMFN
Description: as §3, §4

[2] = system: MCF-7, HCT116, and HePG-2; test: MTT assay against three malignant cell lines (summary); type: cell-based; conditions: Homo sapiens, read-out: IC50 cytotoxicity (range over cell lines)
Description: as §2, §1

EGFR^T790M = EGFR^T790M (Homo sapiens, UniProt P00533, T790M); test: In vitro EGFR T790M kinase inhibitory assay
Description: The assays were conducted in Vacsera (Giza, Egypt). Curve fitting was performed using GraphPad Prism. Data are represented as means ± SD from three independent experiments.
Assay : EGFR-T490M kinase assay
Reader : Tecan-spark reader
Kit used : BPS bioscience EGFR assay kit.

Topo-II [3] = test: In vitro Topo II inhibitory assay; type: biochemical, Human; conditions: fold, EGFR^WT versus Topo-II
Description: as §3, §4

[4] = 24 h incubation, read-out: IC50 HePG-2 24 h
[5] = 48 h incubation, read-out: IC50 HePG-2 48 h
[6] = 72 h incubation, read-out: IC50 HePG-2 72 h
[7] = MTT, liver cancer cells, read-out: IC50 HePG-2
[8] = 24 h incubation, read-out: IC50 MCF-7 24 h
[9] = 48 h incubation, read-out: IC50 MCF-7 48 h
[10] = 72 h incubation, read-out: IC50 MCF-7 72 h
[11] = MTT, breast cancer cells, read-out: IC50 MCF-7
[12] = HCT-116, read-out: IC50 HCT-116, MTT, colon cancer cells
[13] = HCT-116, 24 h incubation, read-out: IC50 HCT116 24 h
[14] = HCT-116, 48 h incubation, read-out: IC50 HCT116 48 h
[15] = HCT-116, 72 h incubation, read-out: IC50 HCT116 72 h
[16] = supplement lab report, read-out: EGFR IC50 (lab report) (converted)
[17] = supplement lab report, read-out: VEGFR2 IC50 (lab report) (converted)
[18] = supplement lab report, Human DNA Topoisomerase 2B Kit, read-out: TOP2a IC50 (lab report) (converted)

Row | SMILES | IC50 (HePG-2; [4]) | IC50 (HePG-2; [5]) | IC50 (HePG-2; [6]) | IC50 (HePG-2; [7]) | IC50 (MCF-7; [8]) | IC50 (MCF-7; [9]) | IC50 (MCF-7; [10]) | IC50 (MCF-7; [11]) | IC50 (HCT-116; [12]) | IC50 (HCT-116; [13]) | IC50 (HCT-116; [14]) | IC50 (HCT-116; [15]) | IC50 (WI-38; Homo sapiens, WI-38, MTT) | IC50 (WI-38; MTT) | EGFR %inh at conc 0.01 (EGFR^WT) | EGFR %inh at conc 0.1 (EGFR^WT) | EGFR %inh at conc 1 (EGFR^WT) | EGFR %inh at conc 10 (EGFR^WT) | IC50 (EGFR^WT; [16]) | VEGFR2 %inh at conc 0.01 (VEGFR-2) | other results
1 | Cc1nc(NN=Cc2ccc(O)cc2)c2cnn(-c3ccccc3)c2n1 [Compound 5b, 4-((2-(6-Methyl-1-phenyl-1H-pyrazolo[3,4-d]pyrimidin-4-yl)hydrazineylidene)methyl)phenol] | 9.12 ± 0.7 µM | 7.6 ± 0.7 µM | 5.16 ± 0.4 µM | 9.12 ± 0.7 µM | 10.5 ± 0.7 µM | 9.82 ± 0.9 µM | 5.16 ± 0.4 µM | 10.5 ± 0.7 µM | 5.65 ± 0.3 µM | 5.65 ± 0.3 µM | 9.82 ± 0.9 µM | 4.09 ± 0.3 µM | > 35 µM | 35 ± 0.3 µM | 28% | 46% | 71% | 87% | 0.366 µM | 13% | VEGFR2 %inh at conc 0.1 (VEGFR-2): 25%; VEGFR2 %inh at conc 1 (VEGFR-2): 50%; VEGFR2 %inh at conc 10 (VEGFR-2): 70%; target selectivity index EGFR over VGFR-2 (VEGFR-2): 20; IC50 (VEGFR-2; read-out: IC50 VGFR2): 15.7 ± 0.32 µM; IC50 (VEGFR-2; [17]): 15.7 µM; TOPO IiB %inh at conc 0.1 (Topo-II [1]): 6.7%; TOPO IiB %inh at conc 1 (Topo-II [1]): 12%; TOPO IiB %inh at conc 10 (Topo-II [1]): 31%; TOPO IiB %inh at conc 100 (Topo-II [1]): 66%; IC50 (Topo-II [1]; read-out: IC50 Topo-II): 108 ± 2.2 µM; IC50 (Topo-II [1]; [18]): 108 µM; IC50 [2]: 3 to 10 µM; melting point: 162 to 164 °C; IC50 (EGFR^T790M): 1.93 ± 0.08 µM; EGFR T790M %inh at conc 0.01 (EGFR^T790M; conc 0.01 (conc.ng/ml)): 37%; EGFR T790M %inh at conc 0.1 (EGFR^T790M; conc 0.1 (conc.ng/ml)): 54%; EGFR T790M %inh at conc 1 (EGFR^T790M; conc 1 (conc.ng/ml)): 77%; EGFR T790M %inh at conc 10 (EGFR^T790M; conc 10 (conc.ng/ml)): 87%
2 | Cc1nc(NNC(=S)Nc2ccccc2)c2cnn(-c3ccccc3)c2n1 [Compound 9e, 2-(6-Methyl-1-phenyl-1H-pyrazolo[3,4-d]pyrimidin-4-yl)-N-phenylhydrazinecarbothioamide] | 7.8 ± 0.4 µM | 8.28 ± 0.8 µM | 5.93 ± 0.5 µM | 7.8 ± 0.4 µM | 8.99 ± 0.5 µM | 8.16 ± 0.8 µM | 7.45 ± 0.7 µM | 8.99 ± 0.5 µM | 6.87 ± 0.5 µM | 6.87 ± 0.5 µM | 6.77 ± 0.4 µM | 5.55 ± 0.4 µM | > 35 µM | 66 ± 0.23 µM | 20% | 42% | 58% | 83% | 0.77 µM | 14% | IC50 (EGFR^WT; read-out: IC50 EGFR^WT): 0.77 ± 0.018 µM; VEGFR2 %inh at conc 0.1 (VEGFR-2): 26%; VEGFR2 %inh at conc 1 (VEGFR-2): 46%; VEGFR2 %inh at conc 10 (VEGFR-2): 72%; target selectivity index EGFR over VGFR-2 (VEGFR-2): 21; IC50 (VEGFR-2; read-out: IC50 VGFR2): 16.2 ± 0.36 µM; IC50 (VEGFR-2; [17]): 16.2 µM; TOPO IiB %inh at conc 0.1 (Topo-II [1]): 4%; TOPO IiB %inh at conc 1 (Topo-II [1]): 16%; TOPO IiB %inh at conc 10 (Topo-II [1]): 34%; TOPO IiB %inh at conc 100 (Topo-II [1]): 65%; IC50 (Topo-II [1]; read-out: IC50 Topo-II): 24.6 ± 0.54 µM; IC50 (Topo-II [1]; [18]): 24.6 µM; target selectivity index EGFR over Topo-II (Topo-II [3]): 31; IC50 [2]: 3 to 10 µM; melting point: 281 to 282 °C
